In PubChem BioAssay AID248 (DTP/NCI, 2004):
Values joined by “and” are separate entries in the source; they are usually repeats but may differ in a detail not shown here. Equal values may be shown once. Inconclusive results and toxic doses are left out. No stated cut-off is given here; in the data, active means T/C of 150% or more; inactive means T/C below 125%.

Test system: L1210 leukemia ip in BDF1 mice, survival T/C
Assay: NCI In Vivo Anticancer Drug Screen. Data for tumor model L1210 Leukemia (intraperitoneal) in B6D2F1 (BDF1) mice
Settings: endpoint: mean survival time, higher = longer survival
In short: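 Transplantable tumor model; survival measured in treated vs vehicle control mice. Value = treated/control.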

[1] = dose: 50.0 mg/kg/injection, schedule: Q01DX009 (ip), vehicle: saline with Tween-80
[2] = dose: 100.0 mg/kg/injection, schedule: Q01DX009 (ip), vehicle: saline with Tween-80
[3] = dose: 100.0 mg/kg/injection, schedule: Q04DX003 (ip), vehicle: saline with Tween-80
[4] = dose: 100.0 mg/kg/injection, schedule: Q01DX001 (ip), vehicle: saline
[5] = dose: 200.0 mg/kg/injection, schedule: Q01DX001 (ip), vehicle: saline
[6] = dose: 400.0 mg/kg/injection, schedule: Q01DX001 (ip), vehicle: saline
[7] = dose: 50.0 mg/kg/injection, schedule: Q01DX001 (ip), vehicle: carboxymethylcellulose (CMC)
[8] = dose: 100.0 mg/kg/injection, schedule: Q01DX001 (ip), vehicle: carboxymethylcellulose (CMC)
[9] = dose: 200.0 mg/kg/injection, schedule: Q01DX001 (ip), vehicle: carboxymethylcellulose (CMC)
[10] = dose: 400.0 mg/kg/injection, schedule: Q01DX001 (ip), vehicle: carboxymethylcellulose (CMC)
[11] = dose: 100.0 mg/kg/injection, schedule: Q04DX002 (ip), vehicle: saline with Tween-80
[12] = dose: 200.0 mg/kg/injection, schedule: Q01DX001 (ip), vehicle: other
[13] = dose: 100.0 mg/kg/injection, schedule: Q01DX001 (ip), vehicle: Klucel (hydroxypropylcellulose) (HPC)
[14] = dose: 200.0 mg/kg/injection, schedule: Q01DX001 (ip), vehicle: Klucel (hydroxypropylcellulose) (HPC)
[15] = dose: 400.0 mg/kg/injection, schedule: Q01DX001 (ip), vehicle: Klucel (hydroxypropylcellulose) (HPC)
[16] = dose: 200.0 mg/kg/injection, schedule: Q04DX003 (ip), vehicle: saline with Tween-80
[17] = dose: 100.0 mg/kg/injection, schedule: Q04DX003 (ip), vehicle: Klucel (hydroxypropylcellulose) (HPC)
[18] = dose: 200.0 mg/kg/injection, schedule: Q04DX003 (ip), vehicle: Klucel (hydroxypropylcellulose) (HPC)
[19] = dose: 400.0 mg/kg/injection, schedule: Q04DX003 (ip), vehicle: Klucel (hydroxypropylcellulose) (HPC)

Measured: T/C

CCN(C(C)C)C(C)C
inactive: dose: 25.0 mg/kg/injection, schedule: Q01DX009 (ip), vehicle: saline with Tween-80 101 % of control | [1] 106 % of control | [2] 96 % of control | [3] 93 % of control

Nc1cccc(CCCCc2ccc(S(=O)(=O)F)cc2)c1
inactive: [4] 101 % of control | [5] 95 % of control | [6] 98 % of control

Cc1cccc(C(=O)O)[n+]1[O-]
inactive: [7] 100 % of control | [8] 95 % of control | [9] 98 % of control | [10] 100 % of control

S=C=NCCCCCCCCCCCCN=C=S
inactive: dose: 6.25 mg/kg/injection, schedule: Q01DX009 (ip), vehicle: saline with Tween-80 101 % of control | dose: 12.5 mg/kg/injection, schedule: Q01DX009 (ip), vehicle: saline with Tween-80 93 % of control | dose: 25.0 mg/kg/injection, schedule: Q04DX002 (ip), vehicle: saline with Tween-80 114 % of control | dose: 50.0 mg/kg/injection, schedule: Q04DX002 (ip), vehicle: saline with Tween-80 111 % of control | [11] 101 % of control

N#CC(C#N)=Cc1ccccc1[N+](=O)[O-]
inactive: dose: 25.0 mg/kg/injection, schedule: Q01DX Z (ip), vehicle: methylcellulose (MC) 98 % of control | dose: 50.0 mg/kg/injection, schedule: Q01DX Z (ip), vehicle: methylcellulose (MC) 88 % of control

CCCCCCCCCCCCCCCCC/C=N\NC(=O)CCCC(=O)N/N=C/CCCCCCCCCCCCCCCCC
inactive: dose: 50.0 mg/kg/injection, schedule: Q01DX001 (ip), vehicle: other 90 % of control | [12] 88 % of control

O=c1[nH]c2c(Br)c([N+](=O)[O-])c(Br)cc2c2ccc(Br)cc12
inactive: [8] 100 % of control | [9] 98 % of control | [10] 91 % of control

O=C(C[n+]1cccc(OC(=O)c2ccccc2)c1)c1ccc(-c2ccccc2)cc1
inactive: dose: 75.0 mg/kg/injection, schedule: Q04DX003 (ip), vehicle: Klucel (hydroxypropylcellulose) (HPC) 100 % of control | [13] 100 % of control | dose: 150.0 mg/kg/injection, schedule: Q04DX003 (ip), vehicle: Klucel (hydroxypropylcellulose) (HPC) 91 % of control | [14] 97 % of control | dose: 300.0 mg/kg/injection, schedule: Q04DX003 (ip), vehicle: Klucel (hydroxypropylcellulose) (HPC) 96 % of control | [15] 101 % of control

Cc1n(C)c(=O)c2ccccc2[n+]1C
inactive: [13] 106 % of control | [14] 87 % of control | [15] 97 % of control

C=C(C)C(C(=O)OC)n1scc(NCc2ccccc2)c1=O (stereo unspecified)
inactive: dose: 100.0 mg/kg/injection, schedule: Q04DX003 (ip), vehicle: saline 91 % of control | dose: 200.0 mg/kg/injection, schedule: Q04DX003 (ip), vehicle: saline 91 % of control | dose: 400.0 mg/kg/injection, schedule: Q04DX003 (ip), vehicle: saline 89 % of control

[C-]#[N+]/C=C1\OC(=O)C=C1C
inactive: [11] 97 % of control | dose: 200.0 mg/kg/injection, schedule: Q04DX002 (ip), vehicle: saline with Tween-80 110 % of control | dose: 400.0 mg/kg/injection, schedule: Q04DX002 (ip), vehicle: saline with Tween-80 97 % of control

O=[N+]([O-])c1ccc(S(=O)(=O)F)c(Cl)c1
inactive: [4] 98 % of control | [5] 90 % of control | [6] 96 % of control

N#CCCCCN1C(=O)c2ccccc2C1=O
inactive: [1] 94 % of control | [2] 94 % of control | [3] 98 % of control | [16] 97 % of control

O=C1OC(=O)C2C3C=CC(C12)C1C2C(=O)OC(=O)C2C31 (stereo unspecified)
inactive: [3] 94 % of control | [16] 94 % of control | dose: 400.0 mg/kg/injection, schedule: Q04DX003 (ip), vehicle: saline with Tween-80 91 % of control

O=C(O)c1ccc(N=Cc2ccccc2O)cc1.[Co]
inactive: dose: 100.0 mg/kg/injection, schedule: Q01DX001 (ip), vehicle: other 96 % of control | [12] 112 % of control

CCOc1ccc(NC(=O)Nc2cccc(Cl)c2)cc1
inactive: dose: 100.0 mg/kg/injection, schedule: Q01DX009 (ip), vehicle: Klucel (hydroxypropylcellulose) (HPC) 103 % of control | [17] 95 % of control | [18] 103 % of control | dose: 400.0 mg/kg/injection, schedule: Q01DX009 (ip), vehicle: Klucel (hydroxypropylcellulose) (HPC) 87 % of control | [19] 100 % of control

COCCO
inactive: [4] 105 % of control | [5] 103 % of control | [6] 105 % of control

N#Cc1cc2c3ccccc3ncc2c2ccccc12
inactive: [17] 91 % of control | dose: 200.0 mg/kg/injection, schedule: Q01DX009 (ip), vehicle: Klucel (hydroxypropylcellulose) (HPC) 96 % of control | [18] 89 % of control | [19] 89 % of control

COC1OC2COC(c3ccccc3)OC2C(O)C1OC(=S)SSC(=S)OC1C(OC)OC2COC(c3ccccc3)OC2C1O (stereo unspecified)
inactive: dose: 25.0 mg/kg/injection, schedule: Q04DX002 (ip), vehicle: Klucel (hydroxypropylcellulose) (HPC) 89 % of control | dose: 50.0 mg/kg/injection, schedule: Q04DX002 (ip), vehicle: Klucel (hydroxypropylcellulose) (HPC) 104 % of control | dose: 100.0 mg/kg/injection, schedule: Q04DX002 (ip), vehicle: Klucel (hydroxypropylcellulose) (HPC) 112 % of control

O=C1OC(c2cccc([N+](=O)[O-])c2)=N/C1=C\c1ccc(O)cc1
inactive: dose: 100.0 mg/kg/injection, schedule: Q04DX002 (ip), vehicle: saline 101 % of control | dose: 200.0 mg/kg/injection, schedule: Q04DX002 (ip), vehicle: saline 101 % of control | dose: 400.0 mg/kg/injection, schedule: Q04DX002 (ip), vehicle: saline 101 % of control

COC(=O)c1sccc1C=O
inactive: dose: 50.0 mg/kg/injection, schedule: Q01DX001 (ip), vehicle: saline 103 % of control | [4] 100 % of control | [17] 100 % of control | dose: 100.0 mg/kg/injection, schedule: Q04DX003 (ip), vehicle: acetone 98 % of control | [5] 100 % of control | [18] 104 % of control | dose: 200.0 mg/kg/injection, schedule: Q04DX003 (ip), vehicle: acetone 102 % of control | [6] 97 % of control | [19] 105 % of control | dose: 400.0 mg/kg/injection, schedule: Q04DX003 (ip), vehicle: acetone 89 % of control

CN/N=C/c1ccc([N+](=O)[O-])o1
inactive: [3] 97 % of control | [16] 88 % of control

Nc1nc[nH]c1-c1n[nH]c(=O)[nH]1
inactive: [13] 108 % of control | [14] 104 % of control

CCCNC(=O)NCCN(CC)c1ccccc1
inactive: [8] 97 % of control | dose: 100.0 mg/kg/injection, schedule: Q01DX009 (ip), vehicle: carboxymethylcellulose (CMC) 93 % of control and 101 % of control | dose: 100.0 mg/kg/injection, schedule: Q04DX002 (ip), vehicle: carboxymethylcellulose (CMC) 94 % of control and 97 % of control | dose: 100.0 mg/kg/injection, schedule: Q04DX003 (ip), vehicle: carboxymethylcellulose (CMC) 100 % of control | [9] 96 % of control | dose: 200.0 mg/kg/injection, schedule: Q01DX009 (ip), vehicle: carboxymethylcellulose (CMC) 104 % of control and 87 % of control | dose: 200.0 mg/kg/injection, schedule: Q04DX002 (ip), vehicle: carboxymethylcellulose (CMC) 105 % of control and 87 % of control | dose: 200.0 mg/kg/injection, schedule: Q04DX003 (ip), vehicle: carboxymethylcellulose (CMC) 109 % of control | [10] 96 % of control | dose: 400.0 mg/kg/injection, schedule: Q01DX009 (ip), vehicle: carboxymethylcellulose (CMC) 93 % of control and 103 % of control | dose: 400.0 mg/kg/injection, schedule: Q04DX002 (ip), vehicle: carboxymethylcellulose (CMC) 93 % of control and 97 % of control | dose: 400.0 mg/kg/injection, schedule: Q04DX003 (ip), vehicle: carboxymethylcellulose (CMC) 102 % of control

COc1ncnc2c1ncn2-c1cccc(C)c1
inactive: [7] 104 % of control | [8] 98 % of control | [9] 104 % of control | [10] 104 % of control

CC1CC=CCC1/C=N/NC(N)=O (stereo unspecified)
inactive: [13] 107 % of control | [14] 104 % of control | [15] 98 % of control
